From patent US20240239861A1, “GLUCAGON-RECEPTOR SELECTIVE POLYPEPTIDES AND METHODS OF USE THEREOF” (i2O Therapeutics, Inc., priority 2016, published 2024)
pEC50: −log10 of the molar value. Where a SMILES comes first, the peptide text is derived from it. [ ]: non-standard residue; d: D form. Aib = CC(C)(N)C(=O)O

Assays:
human GCGR = human GCGR (Homo sapiens, UniProt P47871); test: Peptide-receptor mediated cAMP accumulation (LANCE Ultra cAMP) in CHO-K1 cells transfected with human GCGR; type: cell-based; conditions: Table 3
Sequence of human GCGR (P47871 26-477): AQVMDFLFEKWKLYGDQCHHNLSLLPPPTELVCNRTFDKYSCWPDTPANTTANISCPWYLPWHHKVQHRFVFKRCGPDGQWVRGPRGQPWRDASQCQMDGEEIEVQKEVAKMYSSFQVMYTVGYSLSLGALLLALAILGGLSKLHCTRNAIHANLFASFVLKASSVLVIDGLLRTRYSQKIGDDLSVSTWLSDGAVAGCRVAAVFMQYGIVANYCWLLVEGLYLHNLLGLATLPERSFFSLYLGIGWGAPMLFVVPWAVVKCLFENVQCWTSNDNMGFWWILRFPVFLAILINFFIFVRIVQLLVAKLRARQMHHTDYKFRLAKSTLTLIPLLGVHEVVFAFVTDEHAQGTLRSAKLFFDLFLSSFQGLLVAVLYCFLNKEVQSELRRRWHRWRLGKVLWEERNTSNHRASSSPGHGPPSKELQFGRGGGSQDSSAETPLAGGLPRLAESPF

human GLP-1R = human GLP-1R (Homo sapiens, UniProt P43220); test: Peptide-receptor mediated cAMP accumulation (LANCE Ultra cAMP) in CHO-K1 cells transfected with human GLP-1R; type: cell-based; conditions: hGLP1 pEC50 (cAMP mean (n = 3): 11 point curve starting at 1 nM, Table 3)
Sequence of human GLP-1R (P43220 24-463): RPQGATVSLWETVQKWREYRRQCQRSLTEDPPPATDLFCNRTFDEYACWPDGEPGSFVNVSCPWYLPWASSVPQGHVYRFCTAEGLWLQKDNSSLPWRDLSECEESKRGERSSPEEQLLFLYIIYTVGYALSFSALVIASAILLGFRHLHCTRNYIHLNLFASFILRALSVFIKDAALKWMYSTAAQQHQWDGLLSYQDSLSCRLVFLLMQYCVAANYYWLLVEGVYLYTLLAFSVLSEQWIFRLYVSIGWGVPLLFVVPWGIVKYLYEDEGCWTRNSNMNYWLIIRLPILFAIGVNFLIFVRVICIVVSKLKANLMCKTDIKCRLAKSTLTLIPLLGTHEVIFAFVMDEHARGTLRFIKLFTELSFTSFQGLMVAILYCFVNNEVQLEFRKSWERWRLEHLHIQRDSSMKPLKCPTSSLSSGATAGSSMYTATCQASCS

Row | Compound | pEC50 (human GCGR) | pEC50 (human GLP-1R)
1 | CC(C)C[C@H](NC(=O)[C@H](Cc1ccc(O)cc1)NC(=O)[C@H](CCCCN)NC(=O)[C@H](CO)NC(=O)[C@H](Cc1ccc(O)cc1)NC(=O)[C@H](CC(=O)O)NC(=O)[C@H](CO)NC(=O)[C@@H](NC(=O)[C@H](Cc1ccccc1)NC(=O)[C@@H](NC(=O)CNC(=O)[C@H](Cc1c[nH]cn1)NC(=O)[C@@H](NC(=O)[C@@H](N)Cc1ccc(O)cc1)[C@@H](C)O)[C@@H](C)O)[C@@H](C)O)C(=O)N[C@@H](CC(=O)O)C(=O)NC(C)(C)C(=O)N[C@@H](CCCCN)C(=O)N[C@@H](CCCNC(=N)N)C(=O)N[C@@H](C)C(=O)N[C@@H](CCC(N)=O)C(=O)N[C@@H](CCC(=O)O)C(=O)N[C@@H](Cc1ccccc1)C(=O)N[C@H](C(=O)NC(C)(C)C(=O)N[C@@H](Cc1c[nH]c2ccccc12)C(=O)N[C@@H](CC(C)C)C(=O)N[C@@H](CCC(=O)O)C(=O)N[C@@H](CC(=O)O)C(=O)N[C@@H](CCC(=O)O)C(=O)N1CCC[C@H]1C(=O)N[C@@H](CO)C(=O)N[C@@H](CO)C(=O)NCC(=O)N[C@@H](CCCCN)C(=O)N1CCC[C@H]1C(=O)N1CCC[C@H]1C(=O)N1CCC[C@H]1C(=O)N[C@@H](CO)C(=O)O)C(C)C [Compound A60] (H-YTHGTFTSDYSKYLD[Aib]KRAQEFV[Aib]WLEDEPSSGKPPPS-OH; N-terminus assumed) | 11.30 | < 9.00
2 | CC(C)C[C@H](NC(=O)[C@H](Cc1ccc(O)cc1)NC(=O)[C@H](CCCCN)NC(=O)[C@H](CO)NC(=O)[C@H](Cc1ccc(O)cc1)NC(=O)[C@H](CC(=O)O)NC(=O)[C@H](CO)NC(=O)[C@@H](NC(=O)[C@H](Cc1ccccc1)NC(=O)[C@@H](NC(=O)CNC(=O)[C@H](Cc1c[nH]cn1)NC(=O)[C@@H](NC(=O)[C@@H](N)Cc1ccc(O)cc1)[C@@H](C)O)[C@@H](C)O)[C@@H](C)O)C(=O)N[C@@H](CC(=O)O)C(=O)NC(C)(C)C(=O)N[C@@H](CCCCN)C(=O)N[C@@H](CCCNC(=N)N)C(=O)N[C@@H](C)C(=O)N[C@@H](CCC(N)=O)C(=O)N[C@@H](CCC(=O)O)C(=O)N[C@@H](Cc1ccccc1)C(=O)N[C@H](C(=O)NC(C)(C)C(=O)N[C@@H](Cc1c[nH]c2ccccc12)C(=O)N[C@@H](CC(C)C)C(=O)N[C@@H](CCC(=O)O)C(=O)N[C@@H](CC(=O)O)C(=O)N[C@@H](CCC(=O)O)C(=O)N1CCC[C@H]1C(=O)N[C@@H](CO)C(=O)N[C@@H](CO)C(=O)NCC(=O)N[C@@H](C)C(=O)N1CCC[C@H]1C(=O)N1CCC[C@H]1C(=O)N1CCC[C@H]1C(=O)N[C@@H](CO)C(=O)O)C(C)C [Compound A62] (H-YTHGTFTSDYSKYLD[Aib]KRAQEFV[Aib]WLEDEPSSGAPPPS-OH; N-terminus assumed) | 11.50 | < 9.00
3 | CC(C)C[C@H](NC(=O)[C@H](Cc1ccc(O)cc1)NC(=O)[C@H](CCCCN)NC(=O)[C@H](CO)NC(=O)[C@H](Cc1ccc(O)cc1)NC(=O)[C@H](CC(=O)O)NC(=O)[C@H](CO)NC(=O)[C@@H](NC(=O)[C@H](Cc1ccccc1)NC(=O)[C@@H](NC(=O)CNC(=O)[C@H](Cc1c[nH]cn1)NC(=O)[C@@H](NC(=O)[C@@H](N)Cc1ccc(O)cc1)[C@@H](C)O)[C@@H](C)O)[C@@H](C)O)C(=O)N[C@@H](CC(=O)O)C(=O)N[C@@H](CO)C(=O)N[C@@H](C)C(=O)N[C@@H](CCCNC(=N)N)C(=O)N[C@@H](C)C(=O)N[C@@H](CCC(N)=O)C(=O)N[C@@H](CCC(=O)O)C(=O)N[C@@H](Cc1ccccc1)C(=O)N[C@H](C(=O)N[C@@H](CCCCN)C(=O)N[C@@H](Cc1c[nH]c2ccccc12)C(=O)N[C@@H](CC(C)C)C(=O)N[C@@H](CCC(=O)O)C(=O)N[C@@H](CC(=O)O)C(=O)N[C@@H](CCC(=O)O)C(=O)N1CCC[C@H]1C(=O)N[C@@H](CO)C(=O)N[C@@H](CO)C(=O)NCC(=O)N[C@@H](C)C(=O)N1CCC[C@H]1C(=O)N1CCC[C@H]1C(=O)N1CCC[C@H]1C(=O)N[C@@H](CO)C(=O)O)C(C)C [Compound A63] (H-YTHGTFTSDYSKYLDSARAQEFVKWLEDEPSSGAPPPS-OH) | 10.40 | < 9.00
